Residues, ends and D or L forms follow the SMILES beside them. No end group written: not given here. *: point of attachment. OregonGreen488(6-carbonyl) = O=C1OC2(c3cc(F)c(O)cc3Oc3cc(O)c(F)cc32)c2cc(C(=O)*)ccc21
What was measured:
HT-1080 (CD13+) cells = assay: Cell binding by epifluorescent microscopy, CD13-positive cells; type: cell-based, human; settings: 37° C.
Procedure: (§1) Human fibrosarcoma (HT-1080) and human adenocarcinoma (MCF7) cells were purchased from American Type Culture Collection (ATCC, Manassas, Va.). HT-1080 cells were grown in MEME (ATCC) supplemented with 10% fetal bovine serum (ATCC), and MCF7 cells were grown in the same culture medium with the addition of 0.01 mg/mL bovine insulin (Sigma-Aldrich, St. Louis, Mo.). Both cell lines were maintained in a 5% CO2 incubator at 37° C. Anti-CD13 monoclonal antibody (WM15, Alexa Fluor 488-conjugated) was obtained from AbD Serotec (Raleigh, N.C.).
(§2) Cellular binding of cK(OG)NGRE to the CD13/APN marker was assessed by plating HT-1080 (CD13+) and MCF7 (CD13−) cells in eight-chambered slides (LabTekII, Nunc, Rochester, N.Y.) at a concentration of 15,000 cells/well. After 24 h, cells were washed once with phosphate-buffered saline (PBS) and incubated in complete culture media at 37° C. for 30 min with either cK(OG)NGRE (20 μM) or the anti-CD13 antibody (final concentration 2.5 μg/mL). Slides were washed twice with PBS for 5 min, fixed in 4% paraformaldehyde for 20 min, and mounted with Prolong Gold antifade reagent with DAPI (Invitrogen, Carlsbad, Calif.) and imaged with an epifluorescent microscope (Zeiss Axio Imager.M1, Thornwood, N.Y.) after 24 h. […]

MCF7 (CD13−) cells = assay: Cell binding by epifluorescent microscopy, CD13-negative cells; type: cell-based, human; settings: cK(OG)NGRE 20 μM or anti-CD13 antibody 2.5 μg/mL, 37° C., 30 min
Procedure: as §1, §2

[1] = system: CD13-positive HT-1080 cells

Compound | in vitro binding to HT-1080 cells (fluorescence micrographs) (HT-1080 (CD13+) cells; cK(OG)NGRE 20 μM or anti-CD13 antibody 2.5 μg/mL, 30 min) | localization of fluorescence in HT-1080 cells (HT-1080 (CD13+) cells; epifluorescent microscopy, 30 min incubation) | in vitro binding to MCF7 cells (fluorescence micrographs) (MCF7 (CD13−) cells) | EC50 [1]
N=C(N)NCCC[C@@H]1NC(=O)CNC(=O)[C@H](CC(N)=O)NC(=O)[C@H](CCCCNC(=O)c2ccc3c(c2)C2(OC3=O)c3cc(F)c(O)cc3Oc3cc(O)c(F)cc32)NC(=O)[C@H](CCC(N)=O)NC1=O [cK(OG)NGRE] (cyclo(K(OregonGreen488(6-carbonyl))NGRQ)) | clearly demonstrated binding | internalization of the peptide | minimal binding | 61 µM
KNGRE [reference compound] | – | – | – | 220 µM
